Measured values taken from patent US20150344407A1, “FENDILINE DERIVATIVES AND METHODS OF USE THEREOF” (THE BOARD OF REGENTS OF THE UNIVERSITY OF TEXAS SYSTEM, priority 2012, published 2015).
Structures can show the parent of a compound that is named as a salt.

Experiments:
[1] = test system: MPanc-96 cells; assay: Proliferation assay, pancreatic cancer cell line MPanc-96; format: cell-based; conditions: MPANC96; 72 h, CyQUANT; oncogenic mutant K-Ras
Description: (§1) FIG. 5A-5E—Concentration-response curves of 42, 68, 70, 72 and 73 on proliferation of five pancreatic cancer cell lines. BxPC-3 expresses wild type K-Ras, whereas the others express oncogenic mutant K-Ras. […] EC50 values for their inhibitory effect are tabulated. ND means that the EC50 value could not be determined within the dose range tested. See also Table 5.
(§2) Cell lines: Madine Darby Canine Kidney epithelial cells (MDCK) stably co-expressing mGFP-tagged full length oncogenic mutant K-Ras (GFP-K-RasG12V) and mCherry-tagged to the amino acids 179-189 of H-RasC181S, C184S (mCherry-CAAX, localizes primarily to endomembranes) were grown in DMEM-high glucose/sodium pyruvate/10% FBS. The medium was supplemented with 1× Penicillin/Streptomycin for fluorescence microscopy assays, to avoid any microbial contamination from the test compounds added. KLE and Hec50 cells were maintained in DMEM-F-12 medium supplemented with 10% FBS. Hec-1A and Hec-1B cells were grown in McCoy's 5a medium supplemented with 10% FBS. ESS-1 cells were grown in RPMI 1640 medium supplemented with 20% FBS. MPanc96 cells were grown in DMEM supplemented with 10% FBS, MiaPaCa-2 cells in DMEM supplemented with 10% FBS and 2.5% horse serum and all other cell lines were grown in RPMI 1640 supplemented with 10% FBS. All cancer cell media were supplemented with 1× Penicillin/Streptomycin. All cell lines were grown at 37° C. with 5% CO2.
(§3) Proliferation Assay: Cells were seeded in 96-well plates. After 24 h, fresh growth medium supplemented with 0.1% vehicle (DMSO), or various concentrations of drugs was added and cells were grown for 72 h. Cell numbers were quantified using the CyQUANT® Cell Proliferation Assay Kit (Life Technologies), according to the manufacturer's protocol. Fluorescence measurement was used as a measure of live cell number.
(§4) Based upon the concentration-response curves of five different compounds (42, 68, 70, 72, and 73) were tested for their effects on cell proliferation of five different pancreatic cell lines. These experiments were carried out as described in the Methods and Materials section.

[2] = test system: MiaPaCa-2 cells; assay: Proliferation assay, pancreatic cancer cell line MiaPaCa-2; format: cell-based; conditions: Homo sapiens, MIA PaCa-2; 72 h, CyQUANT; oncogenic mutant K-Ras
Description: as §1, §2, §3, §4

[3] = test system: HPAC cells; assay: Proliferation assay, pancreatic cancer cell line HPAC; format: cell-based; conditions: Homo sapiens, 72 h, CyQUANT, oncogenic mutant K-Ras
Description: as §1, §2, §3, §4

[4] = test system: Hec-1A cells; assay: Proliferation assay, endometrial cancer cell line Hec-1A; format: cell-based; conditions: Homo sapiens; 72 h, CyQUANT; Hec-1A expresses oncogenic mutant K-Ras
Description: (§5) FIG. 4A-4E—Concentration-response curves of 42, 68, 70, 72 and 73 on proliferation of five endometrial cancer cell lines. KLE and ESS-1 express wild type K-Ras and Hec-1A, Hec-1B and Hec50 express oncogenic mutant K-Ras. […] EC50 values for their inhibitory effect are tabulated. ND means that the EC50 value could not be determined within the dose range tested. See also Table 4.
as §2, §3
(§6) Based upon the concentration-response curves of five different compounds (42, 68, 70, 72, and 73) were tested for their effects on cell proliferation of five different endometrial cell lines. These experiments were carried out as described in the Methods and Materials section.

[5] = test system: Hec50 cells; assay: Proliferation assay, endometrial cancer cell line Hec50; format: cell-based; conditions: 72 h, CyQUANT; Hec50 expresses oncogenic mutant K-Ras
Description: as §5, §2, §3, §6

[6] = test system: MOH cells; assay: Proliferation assay, pancreatic cancer cell line MOH; format: cell-based; conditions: 72 h, CyQUANT, oncogenic mutant K-Ras
Description: as §1, §2, §3, §4

[7] = test system: Hec-1B cells; assay: Proliferation assay, endometrial cancer cell line Hec-1B; format: cell-based; conditions: Homo sapiens; 72 h, CyQUANT; Hec-1B expresses oncogenic mutant K-Ras; ND = EC50 could not be determined within the dose range tested
Description: as §5, §2, §3
Based upon the concentration-response curves of five different compounds (42, 68, 70, 72, and 73) were tested for their effects on cell proliferation of five different endometrial cell lines. […]

[8] = target: T1, GFP-tagged K-rasG12V (oncogenic K-ras) in MDCK cells (Homo sapiens, UniProt P01116, G12V); assay: K-ras mislocalization, confocal fluorescence microscopy with densitometric analysis; format: cell-based, canine; conditions: 48 hours, MDCK cells stably expressing GFP-tagged K-rasG12V, normalized to vehicle-treated control; for inhibition at 4 µM: 4 μM compound, read-out: % Mislocalization of K-ras when treated with 4 μM compound
T1 construct: mGFP-tagged full length oncogenic mutant K-Ras (GFP-K-RasG12V); expressed in transfected cells
Description: FIGS. 1 & 2—Representative images showing degree of K-ras mislocalization with compound treatment (images corresponds with column 3 of Table 2). MDCK cells stably expressing GFP-tagged K-rasG12V were treated with vehicle or compound (4 μM) for 48 hours and fixed with 4% paraformaldehyde. The coverslips were mounted in Mowiol and imaged by confocal microscopy (Nikon A1) using a 60× objective. The number above each image corresponds the fendiline derivative code.
(§7) To determine the effect of compounds on localization of K-ras, Mardine Darby canine kidney epithelial (MDCK) cells stably expressing GFP-tagged K-rasG12V (oncogenic K-ras) grown on cover slips were treated with vehicle or compound (4 μM) for 48 hours and fixed with 4% paraformaldehyde. The coverslips were mounted in Mowiol and imaged by confocal microscopy (Nikon A1) using a 60× objective. Images were analyzed by ImageJ software. Densitometric analysis was performed on images to determine the degree of K-ras mislocalization. To determine the effect of compounds on K-ras function, MDCK cells stably expressing GFP-tagged K-rasG12V were treated with vehicle or compound (4 μM) for 48 hours. Following treatment, whole cell lysates were prepared and subjected SDS-PAGE and western blotting to quantify the level of phosphorylated ERK, a protein activated downstream of K-ras. All calculations were normalized to vehicle-treated control.
Fluorescence microscopy: 2×10^5 or 1×10^5 cells/well were seeded in 6- or 12-well cell culture plates, respectively, containing glass coverslips. 24 h after seeding, fresh medium containing 1% vehicle (Dimethyl sulfoxide, DMSO) or 4 μM test compound (1:100 dilution, such that DMSO was 1%) was added and incubated for 48 h, following which the cells were fixed with 4% paraformaldehyde and coverslips were mounted in Mowiol. Cells were imaged in the GFP wavelength (488 nm) using a confocal microscope (Nikon A1) with 60× objective. Images were saved in tagged imaged file format (tiff) and analyzed by ImageJ software. The densitometric ratio of plasma membrane localized K-Ras versus total K-Ras was calculated and normalized to vehicle-treated control.

[9] = test system: phosphorylated ERK, a protein activated downstream of K-ras; assay: Western immunoblotting for pERK (inhibition of ERK activation); format: cell-based, canine; conditions: Canis lupus familiaris; 4 μM compound, 48 hours, MDCK cells stably expressing GFP-tagged K-rasG12V; whole cell lysates; normalized to vehicle-treated control; read-out: % Inhibition of ERK activation when treated with 4 μM compound
Description: as §7
Western Immunoblotting for pERK: 2×10^5 cells/well were seeded in 6-well cell culture plates. 24 h after seeding, fresh medium containing 1% vehicle (DMSO) or 4 μM test compound (1:100 dilution, such that DMSO was 1%) was added and incubated for 48 h. Cells were lysed in Buffer B (50 mM Tris [pH 7.5], 75 mM NaCl, 25 mM NaF, 5 mM MgCl2, 5 mM EGTA, 1 mM dithiothreitol, 100 μM NaVO4, 1% Nonidet P-40 plus protease inhibitors). SDS-PAGE and immunoblotting with the anti-phospho-p44/42 mitogen-activated protein kinase (MAPK) (ERK1/2) antibody was performed using 20 μg of each whole cell lysate. Signal was detected by enhanced chemiluminescence (SuperSignal; Pierce, Thermo Fisher Scientific, Rockford, Ill.) and imaged by FluorChemQ (Alpha Inotech, San Leandro, Calif.). Quantification of intensities was performed using FluorChemQ software. Results were normalized to vehicle-treated control.

Structure (SMILES)	inhibition at 4 µM [8]	inhibition at 4 µM [9]	further results
COc1ccc([C@@H](C)N(CC=C(c2ccccc2)c2ccccc2)CC=C(c2ccccc2)c2ccccc2)cc1 [Compound 68, (R)-N-(3,3-diphenylallyl)-N-(1-(4-methoxyphenyl)ethyl)-3,3-diphenylprop-2-en-1-amine]			EC50 [1]: 912 nM; EC50 [2]: 1150 nM; EC50 [3]: 105 nM; EC50 [4]: 211 nM; EC50 [5]: 1.58 nM; EC50 [6]: 931 nM
C[C@H](c1cccc(Cl)c1)N(CC=C(c1ccccc1)c1ccccc1)CC=C(c1ccccc1)c1ccccc1 [Compound 70, (R)—N-(1-(3-chlorophenyl)ethyl)-N-(3,3-diphenylallyl)-3,3-diphenylprop-2-en-1-amine]			EC50 [1]: 814 nM; EC50 [7]: 10700 nM; EC50 [2]: 1500 nM; EC50 [3]: 220 nM; EC50 [4]: 38.2 nM; EC50 [5]: 3310 nM; EC50 [6]: 663 nM
C[C@@H](NCC=C(c1ccccc1)c1ccccc1)c1ccc(F)cc1 [Compound 45, (R)—N-(1-(4-fluorophenyl)ethyl)-3,3-diphenylprop-2-en-1-amine]	50%	43.5%	
CC(OCCC(c1ccccc1)c1ccccc1)c1ccccc1 (stereo not drawn) [Compound 13]	32%	28.9%	
C[C@@H](NCC=C(c1ccccc1)c1ccccc1)c1ccc(N)cc1 [Compound 48, (R)-4-(1-((3,3-diphenylallyl)amino)ethyl)aniline]	28.2%	53.5%	
C[C@@H](NCC1CCCCC1)c1ccccc1 [Compound 38, (R)—N-(cyclohexylmethyl)-1-phenylethanamine]	9.67%	32.7%	
C[C@@H](NCC=C1c2ccccc2C=Cc2ccccc21)c1ccc(F)cc1 [Compound 58, (R)—N-(2 (5H-dibenzo[a,d][7]annulen-5-ylidene)ethyl)-1-(4-fluorophenyl) ethanamine]	5.05%	-78.7%	
C[C@@H](NCCC(c1ccccc1)c1ccccc1)c1ccccc1.Cl [Compound 08, (R)-3,3-diphenyl-N-(1-phenylethyl)propan-1-amine hydrochloride]		38.2%	% Mislocalization of K-ras when treated with 4 μM compound [8]: 36.05%
C(CN(CC=C(c1ccccc1)c1ccccc1)[C@@H]1CCc2ccccc21)=C(c1ccccc1)c1ccccc1 [Compound 73, (R)—N,N-bis(3,3-diphenylallyl)-2,3-dihydro-1H-inden-1-amine]			EC50 [1]: 239 nM; EC50 [7]: 330 nM; EC50 [2]: 894 nM; EC50 [3]: 346 nM; EC50 [4]: 19.6 nM; EC50 [5]: 412 nM; EC50 [6]: 616 nM

Further lines, with some results ahead:

inhibition at 4 µM [8]	Structure (SMILES)	inhibition at 4 µM [9]	further results
50%	COC(=O)[C@H](NCC=C(c1ccccc1)c1ccccc1)c1ccccc1 [Compound 42, (R)-methyl 2-((3,3-diphenylallyl)amino)-2-phenylacetate]	44%	EC50 [1]: 1120 nM; EC50 [7]: 524 nM; EC50 [2]: 2410 nM; EC50 [3]: 944 nM; EC50 [4]: 7.39 nM; EC50 [5]: 423 nM; EC50 [6]: 1040 nM
37.5%	CC[C@@H](NCC=C(c1ccccc1)c1ccccc1)c1ccccc1 [Compound 46, (R)-3,3-diphenyl-N-(1-phenylpropyl)prop-2-en-1-amine]	54%	
7.94%	C[C@@H](NC/C=C/c1ccccc1)c1cccc2ccccc12 [Compound 34, (R,E)-N-(1-(naphthalen-1-yl)ethyl)-3-phenylprop-2-en-1-amine]	18.9%	
32.4%	CC(NCCCc1ccccc1)c1ccccc1 (stereo not drawn) [Compound 11, 3-phenyl-N-(1-phenylethyl)propan-1-amine hydrochloride]	42.9%	
26.1%	C[C@@H](NC/C=C/c1ccccc1)c1ccc2ccccc2c1 [Compound 35, (R,E)-N-(1-(naphthalen-2-yl)ethyl)-3-phenylprop-2-en-1-amine]	-21.6%	
9.46%	COC(=O)[C@H](NC/C=C/c1ccccc1)c1ccccc1 [Compound 40, (R)-methyl 2-(cinnamylamino)-2-phenylacetate]	11%	
16.5%	C[C@H](NC/C=C/c1ccccc1)c1ccccc1 [Compound 19, (S,E)-3-phenyl-N-(1-phenylethyl)prop-2-en-1-amine]	11.3%	
6.36%	C[C@@H](NC/C=C/c1ccc(-c2ccccc2)cc1)c1ccccc1 [Compound 31, (R,E)-3-([1,1′-biphenyl]-4-yl)-N-(1-phenylethyl)prop-2-en-1-amine]	35.6%	
20.1%	C[C@@H](NC/C=C(/c1ccccc1)c1ccc([N+](=O)[O-])cc1)c1ccccc1 [Compound 49, (R,Z)-3-(4-nitrophenyl)-3-phenyl-N-(1-phenylethyl)prop-2-en-1-amine]	36.8%	
